Assay results: PubChem BioAssay (NCI)
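Interpolation was linear, between the two tested concentrations surrounding the appropriate level; five concentrations were tested over 48 hours in 96-well plates. GI50 is the concentration that inhibits growth by half. TGI: total growth inhibition.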

What was measured:
Test in all cases: NCI-60 cell line screen, 48 h
NCI-H522 lung = system: NCI-H522 lung
ACHN renal = system: ACHN renal
M14 melanoma = system: M14 melanoma
IGROV1 ovarian = system: IGROV1 ovarian
MDA-MB-435 = system: MDA-MB-435
HT29 colon = system: HT29 colon
DU-145 prostate = system: DU-145 prostate
SNB-19 CNS = system: SNB-19 CNS
SF-295 CNS = system: SF-295 CNS
HCT-116 colon = system: HCT-116 colon
T-47D breast = system: T-47D breast
CCRF-CEM leukemia = system: CCRF-CEM leukemia
MCF7 breast = system: MCF7 breast
HOP-62 NSCLC = system: HOP-62 NSCLC
UO-31 renal = system: UO-31 renal
HS 578T breast = system: HS 578T breast
HOP-92 NSCLC = system: HOP-92 NSCLC
K-562 leukemia = system: K-562 leukemia
786-0 renal = system: 786-0 renal
NCI-H23 lung = system: NCI-H23 lung
NCI/ADR-RES ovarian = system: NCI/ADR-RES ovarian
KM12 colon = system: KM12 colon
RPMI-8226 leukemia = system: RPMI-8226 leukemia
OVCAR-3 ovarian = system: OVCAR-3 ovarian
HL-60(TB) leukemia = system: HL-60(TB) leukemia
PC-3 prostate = system: PC-3 prostate
SW-620 colon = system: SW-620 colon
TK-10 renal = system: TK-10 renal
OVCAR-4 ovarian = system: OVCAR-4 ovarian
HCC-2998 colon = system: HCC-2998 colon
RXF 393 renal = system: RXF 393 renal
OVCAR-5 ovarian = system: OVCAR-5 ovarian
UACC-62 melanoma = system: UACC-62 melanoma
SF-268 CNS = system: SF-268 CNS
SF-539 CNS = system: SF-539 CNS
BT-549 breast = system: BT-549 breast
HCT-15 colon = system: HCT-15 colon
OVCAR-8 ovarian = system: OVCAR-8 ovarian
MALME-3M melanoma = system: MALME-3M melanoma
SN12C renal = system: SN12C renal
SK-MEL-28 melanoma = system: SK-MEL-28 melanoma
CAKI-1 renal = system: CAKI-1 renal
U251 CNS = system: U251 CNS
COLO 205 colon = system: COLO 205 colon
MOLT-4 leukemia = system: MOLT-4 leukemia
NCI-H460 lung = system: NCI-H460 lung
EKVX NSCLC = system: EKVX NSCLC
SK-OV-3 ovarian = system: SK-OV-3 ovarian
A549 NSCLC = system: A549 NSCLC

Which results are given for `COc1ccc(-c2ccc(/C=N/n3c(COc4ccccc4Cl)nn(CN4CCOCC4)c3=S)o2)c([N+](=O)[O-])c1`?
GI50 (NCI-H522 lung): 38.9 µM; TGI (NCI-H522 lung): > 100 µM; GI50 (ACHN renal): 33.6 µM; TGI (ACHN renal): > 100 µM; GI50 (M14 melanoma): 22.3 µM; TGI (M14 melanoma): 55.8 µM; GI50 (IGROV1 ovarian): 59.5 µM; TGI (IGROV1 ovarian): > 100 µM; GI50 (MDA-MB-435): 17.1 µM; TGI (MDA-MB-435): 42.3 µM; GI50 (HT29 colon): 49.9 µM; TGI (HT29 colon): > 100 µM; GI50 (DU-145 prostate): 34.1 µM; TGI (DU-145 prostate): > 100 µM; GI50 (SNB-19 CNS): 36.2 µM; TGI (SNB-19 CNS): > 100 µM; GI50 (SF-295 CNS): 38.1 µM; TGI (SF-295 CNS): > 100 µM; GI50 (HCT-116 colon): 19.6 µM; TGI (HCT-116 colon): 41.1 µM; GI50 (T-47D breast): 53.9 µM; TGI (T-47D breast): > 100 µM; GI50 (CCRF-CEM leukemia): 18.7 µM; TGI (CCRF-CEM leukemia): 47.9 µM; GI50 (MCF7 breast): 19.4 µM; TGI (MCF7 breast): 47.4 µM; GI50 (HOP-62 NSCLC): 30 µM; TGI (HOP-62 NSCLC): 85.5 µM; GI50 (UO-31 renal): 37.1 µM; TGI (UO-31 renal): > 100 µM; GI50 (HS 578T breast): 33.9 µM; TGI (HS 578T breast): 90.4 µM; GI50 (HOP-92 NSCLC): 21.6 µM; TGI (HOP-92 NSCLC): 52.6 µM; GI50 (K-562 leukemia): 18.2 µM; TGI (K-562 leukemia): 41 µM; GI50 (786-0 renal): 34.4 µM; TGI (786-0 renal): > 100 µM; GI50 (NCI-H23 lung): 22.9 µM; TGI (NCI-H23 lung): 62.7 µM; GI50 (NCI/ADR-RES ovarian): 21.3 µM; TGI (NCI/ADR-RES ovarian): 49.2 µM; GI50 (KM12 colon): 17.1 µM; TGI (KM12 colon): 34.6 µM; GI50 (RPMI-8226 leukemia): 15.2 µM; TGI (RPMI-8226 leukemia): 42.1 µM; GI50 (OVCAR-3 ovarian): 16.7 µM; TGI (OVCAR-3 ovarian): 52.4 µM; GI50 (HL-60(TB) leukemia): 17 µM; TGI (HL-60(TB) leukemia): 39 µM; GI50 (PC-3 prostate): 20.7 µM; TGI (PC-3 prostate): 61.4 µM; GI50 (SW-620 colon): 27.4 µM; TGI (SW-620 colon): 87.1 µM; GI50 (TK-10 renal): 14.9 µM; TGI (TK-10 renal): 47.9 µM; GI50 (OVCAR-4 ovarian): 35.1 µM; TGI (OVCAR-4 ovarian): > 100 µM; GI50 (HCC-2998 colon): 24.1 µM; TGI (HCC-2998 colon): 56.8 µM; GI50 (RXF 393 renal): 22.3 µM; TGI (RXF 393 renal): 61.6 µM; GI50 (OVCAR-5 ovarian): 55.3 µM; TGI (OVCAR-5 ovarian): > 100 µM; GI50 (UACC-62 melanoma): 35 µM; TGI (UACC-62 melanoma): > 100 µM; GI50 (SF-268 CNS): 24 µM; TGI (SF-268 CNS): 63.4 µM; GI50 (SF-539 CNS): 28.6 µM; TGI (SF-539 CNS): 60.8 µM; GI50 (BT-549 breast): 14.3 µM; TGI (BT-549 breast): 40.7 µM; GI50 (HCT-15 colon): 28.2 µM; TGI (HCT-15 colon): > 100 µM; GI50 (OVCAR-8 ovarian): 39.4 µM; TGI (OVCAR-8 ovarian): > 100 µM; GI50 (MALME-3M melanoma): 18 µM; TGI (MALME-3M melanoma): 44.3 µM; GI50 (SN12C renal): 32 µM; TGI (SN12C renal): 96.7 µM; GI50 (SK-MEL-28 melanoma): 46 µM; TGI (SK-MEL-28 melanoma): > 100 µM; GI50 (CAKI-1 renal): 21.3 µM; TGI (CAKI-1 renal): 56.3 µM; GI50 (U251 CNS): 26.1 µM; TGI (U251 CNS): > 100 µM; GI50 (COLO 205 colon): 36.6 µM; TGI (COLO 205 colon): > 100 µM; GI50 (MOLT-4 leukemia): 19.3 µM; TGI (MOLT-4 leukemia): 51.7 µM; GI50 (NCI-H460 lung): 19.8 µM; TGI (NCI-H460 lung): 49 µM; GI50 (EKVX NSCLC): 54.9 µM; TGI (EKVX NSCLC): > 100 µM; GI50 (SK-OV-3 ovarian): 25.7 µM; TGI (SK-OV-3 ovarian): > 100 µM; GI50 (A549 NSCLC): 27.4 µM; TGI (A549 NSCLC): > 100 µM
